Results published in US20230278972A1, “SUBSTITUTED HALOALKYL SULFONANILIDE HERBICIDES” (FMC Corporation, priority 2020, published 2023).

Key:
Format in all cases: in vivo
[1] = system: Ryegrass, Italian (Italian ryegrass, Lolium multiflorum); assay: Test A postemergence, Ryegrass, Italian; details: Postemergence, 0 to 100 scale (0 no effect, 100 complete control); for Plant response rating, Ryegrass, Italian: 125 g ai/ha, visual injury approx. 10 days; for Ryegrass, Italian plant response rating: 500 g ai/ha, visual injury vs untreated controls after approx. 10 days
In short: (§1)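 Directed soil spray at planting gave the preemergence treatment, while foliar application to one- to two-leaf seedlings (2–10 cm) gave the postemergence one; pots held a loam and sand mixture and chemicals were carried in a non-phytotoxic solvent with surfactant.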

kochia (Bassia scoparia) [2] = assay: Test A postemergence, kochia; details: Postemergence, 0 to 100 scale (0 no effect, 100 complete control); for Plant response rating, Kochia: 125 g ai/ha, visual injury approx. 10 days; for Kochia plant response rating: 500 g ai/ha, visual injury vs untreated controls after approx. 10 days
In short: as §1

[3] = system: Foxtail, Giant (giant foxtail, Setaria faberi); assay: Test A postemergence, Foxtail, Giant; details: Postemergence, 0 to 100 scale (0 no effect, 100 complete control); for Plant response rating, Foxtail, Giant: 125 g ai/ha, visual injury approx. 10 days; for Foxtail, Giant plant response rating: 500 g ai/ha, visual injury vs untreated controls after approx. 10 days
In short: as §1

[4] = system: blackgrass (Alopecurus myosuroides); assay: Test A postemergence, blackgrass; details: Postemergence, 0 to 100 scale (0 no effect, 100 complete control); for Plant response rating, Blackgrass: 125 g ai/ha, visual injury approx. 10 days; for Blackgrass plant response rating: 500 g ai/ha, visual injury vs untreated controls after approx. 10 days
In short: as §1

[5] = system: galium (catchweed bedstraw, Galium aparine); assay: Test A postemergence, galium; details: Postemergence, 0 to 100 scale (0 no effect, 100 complete control); for Plant response rating, Galium: 125 g ai/ha, visual injury approx. 10 days; for Galium plant response rating: 500 g ai/ha, visual injury vs untreated controls after approx. 10 days
In short: (§2)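 Barnyardgrass, wheat and galium were treated postemergence at the one- to two-leaf stage (2 to 10 cm) with chemicals formulated in non-phytotoxic solvent plus surfactant, grown in loam soil–sand pots. Pigweed was sown in the same blend and given a preemergence directed soil spray.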

[6] = system: barnyardgrass (Echinochloa crus-galli); assay: Test A preemergence, barnyardgrass; details: Preemergence; for Barnyardgrass plant response rating: 125 g ai/ha, visual injury on 0 to 100 scale (0 no effect, 100 complete control), approximately 10 days; for Plant response rating, Barnyardgrass: 500 g ai/ha, 0 to 100 scale (0 no effect, 100 complete control)
In short: as §1

[7] = system: barnyardgrass (Echinochloa crus-galli); assay: Test A postemergence, barnyardgrass; details: Postemergence, 0 to 100 scale (0 no effect, 100 complete control); for Plant response rating, Barnyardgrass: 125 g ai/ha, visual injury approx. 10 days; for Barnyardgrass plant response rating: 500 g ai/ha, visual injury vs untreated controls after approx. 10 days
In short: as §2

[8] = system: ragweed (common ragweed, Ambrosia artemisiifolia); assay: Test A postemergence, ragweed; details: Postemergence, 0 to 100 scale (0 no effect, 100 complete control); for Plant response rating, Ragweed: 125 g ai/ha, visual injury approx. 10 days; for Ragweed plant response rating: 500 g ai/ha, visual injury vs untreated controls after approx. 10 days
In short: as §1

[9] = system: Ryegrass, Italian (Italian ryegrass, Lolium multiflorum); assay: Test A preemergence, Ryegrass, Italian; details: Preemergence; for Ryegrass, Italian plant response rating: 125 g ai/ha, visual injury on 0 to 100 scale (0 no effect, 100 complete control), approximately 10 days; for Plant response rating, Ryegrass, Italian: 500 g ai/ha, 0 to 100 scale (0 no effect, 100 complete control)
In short: as §1

[10] = system: pigweed (Amaranthus retroflexus); assay: Test A postemergence, pigweed; details: Postemergence, 0 to 100 scale (0 no effect, 100 complete control); for Plant response rating, Pigweed: 125 g ai/ha, visual injury approx. 10 days; for Pigweed plant response rating: 500 g ai/ha, visual injury vs untreated controls after approx. 10 days
In short: as §1

kochia (Bassia scoparia) [11] = assay: Test A preemergence, kochia; details: Preemergence; for Kochia plant response rating: 125 g ai/ha, visual injury on 0 to 100 scale (0 no effect, 100 complete control), approximately 10 days; for Plant response rating, Kochia: 500 g ai/ha, 0 to 100 scale (0 no effect, 100 complete control)
In short: as §1

corn (Zea mays) = assay: Test A postemergence, corn; details: Postemergence, 0 to 100 scale (0 no effect, 100 complete control); for Plant response rating, Corn: 125 g ai/ha, visual injury approx. 10 days; for Corn plant response rating: 500 g ai/ha, visual injury vs untreated controls after approx. 10 days
In short: as §1

[12] = system: Foxtail, Giant (giant foxtail, Setaria faberi); assay: Test A preemergence, Foxtail, Giant; details: Preemergence; for Foxtail, Giant plant response rating: 125 g ai/ha, visual injury on 0 to 100 scale (0 no effect, 100 complete control), approximately 10 days; for Plant response rating, Foxtail, Giant: 500 g ai/ha, 0 to 100 scale (0 no effect, 100 complete control)
In short: as §1

[13] = system: wheat (Triticum aestivum); assay: Test A postemergence, wheat; details: Postemergence, 0 to 100 scale (0 no effect, 100 complete control); for Plant response rating, Wheat: 125 g ai/ha, visual injury approx. 10 days; for Wheat plant response rating: 500 g ai/ha, visual injury vs untreated controls after approx. 10 days
In short: as §2

[14] = system: pigweed (Amaranthus retroflexus); assay: Test A preemergence, pigweed; details: for Pigweed plant response rating: 125 g ai/ha, visual injury on 0 to 100 scale (0 no effect, 100 complete control), approximately 10 days; for Plant response rating, Pigweed: 500 g ai/ha, 0 to 100 scale (0 no effect, 100 complete control)
In short: as §2

[15] = system: ragweed (common ragweed, Ambrosia artemisiifolia); assay: Test A preemergence, ragweed; details: Preemergence; for Ragweed plant response rating: 125 g ai/ha, visual injury on 0 to 100 scale (0 no effect, 100 complete control), approximately 10 days; for Plant response rating, Ragweed: 500 g ai/ha, 0 to 100 scale (0 no effect, 100 complete control)
In short: as §1

Row | SMILES | Plant response rating, Ryegrass, Italian [1] | Ryegrass, Italian plant response rating [1] | Plant response rating, Kochia (kochia (Bassia scoparia) [2]) | Kochia plant response rating (kochia (Bassia scoparia) [2]) | Plant response rating, Foxtail, Giant [3] | Foxtail, Giant plant response rating [3] | Plant response rating, Blackgrass [4] | Blackgrass plant response rating [4] | Plant response rating, Galium [5] | Galium plant response rating [5] | Barnyardgrass plant response rating [6] | Plant response rating, Barnyardgrass [6] | Plant response rating, Barnyardgrass [7] | Barnyardgrass plant response rating [7] | Plant response rating, Ragweed [8] | Ragweed plant response rating [8] | Ryegrass, Italian plant response rating [9] | Plant response rating, Ryegrass, Italian [9] | Plant response rating, Pigweed [10] | Pigweed plant response rating [10] | further results
1 | COc1cc(-c2cc(NS(=O)(=O)C(F)(F)F)c(C)cc2C)c(=O)n(C)n1 [Compound 70] | 0 | 0 | 0 | 0 | 0 | 20 | 30 | 30 | 60 | 80 | 90 | 100 | 0 | 50 | 0 | 0 | 50 | 60 | 0 | 20 | Kochia plant response rating (kochia (Bassia scoparia) [11]): 0; Plant response rating, Kochia (kochia (Bassia scoparia) [11]): 0; Plant response rating, Corn (corn (Zea mays)): 0; Corn plant response rating (corn (Zea mays)): 0; Foxtail, Giant plant response rating [12]: 10; Plant response rating, Foxtail, Giant [12]: 90; Plant response rating, Wheat [13]: 0; Wheat plant response rating [13]: 30; Pigweed plant response rating [14]: 80; Plant response rating, Pigweed [14]: 80; Ragweed plant response rating [15]: 10; Plant response rating, Ragweed [15]: 70
2 | Cc1cc(C)c(-c2cc(C(F)(F)F)nn(C)c2=O)cc1NS(=O)(=O)C(F)(F)F [Compound 71] | 70 | 80 | 20 | 40 | 0 | 90 | 0 | 70 | 50 | 80 | 0 | 100 | 0 | 80 | 0 | 0 | 70 | 100 | 0 | 60 | Kochia plant response rating (kochia (Bassia scoparia) [11]): 80; Plant response rating, Kochia (kochia (Bassia scoparia) [11]): 40; Plant response rating, Corn (corn (Zea mays)): 0; Corn plant response rating (corn (Zea mays)): 30; Foxtail, Giant plant response rating [12]: 80; Plant response rating, Foxtail, Giant [12]: 100; Plant response rating, Wheat [13]: 40; Wheat plant response rating [13]: 70; Pigweed plant response rating [14]: 40; Plant response rating, Pigweed [14]: 60; Ragweed plant response rating [15]: 10; Plant response rating, Ragweed [15]: 60
3 | Cc1cc(C)c(-c2ccnn(CC(C)C)c2=O)cc1NS(=O)(=O)C(F)(F)F [Compound 77] | 0 | 0 | 0 | 10 | 0 | 40 | 0 | 0 | 0 | 40 | 90 | 90 | 0 | 20 | 0 | 10 | 0 | 90 | 0 | 0 | Kochia plant response rating (kochia (Bassia scoparia) [11]): 0; Plant response rating, Kochia (kochia (Bassia scoparia) [11]): 0; Plant response rating, Corn (corn (Zea mays)): 0; Corn plant response rating (corn (Zea mays)): 60; Foxtail, Giant plant response rating [12]: 90; Plant response rating, Foxtail, Giant [12]: 100; Plant response rating, Wheat [13]: 0; Wheat plant response rating [13]: 70; Pigweed plant response rating [14]: 20; Plant response rating, Pigweed [14]: 30; Ragweed plant response rating [15]: 0; Plant response rating, Ragweed [15]: 20
4 | Cc1cc(C)c(-c2ccnn(C(C)C)c2=O)cc1NS(=O)(=O)C(F)(F)F [Compound 78] | 40 | 60 | 0 | 20 | 70 | 90 | 0 | 30 | 60 | 90 | 90 | 100 | 40 | 70 | 0 | 40 | 100 | 100 | 0 | 50 | Kochia plant response rating (kochia (Bassia scoparia) [11]): 0; Plant response rating, Kochia (kochia (Bassia scoparia) [11]): 60; Plant response rating, Corn (corn (Zea mays)): 0; Corn plant response rating (corn (Zea mays)): 50; Foxtail, Giant plant response rating [12]: 100; Plant response rating, Foxtail, Giant [12]: 100; Plant response rating, Wheat [13]: 0; Wheat plant response rating [13]: 70; Pigweed plant response rating [14]: 30; Plant response rating, Pigweed [14]: 90; Ragweed plant response rating [15]: 80; Plant response rating, Ragweed [15]: 90
5 | CCn1nccc(-c2cc(NS(=O)(=O)C(F)(F)F)c(C)cc2C)c1=O [Compound 79] | 40 | 80 | 40 | 70 | 90 | 90 | 30 | 30 | 90 | 90 | 100 | 100 | 80 | 90 | 30 | 80 | 90 | 100 | 30 | 80 | Kochia plant response rating (kochia (Bassia scoparia) [11]): 70; Plant response rating, Kochia (kochia (Bassia scoparia) [11]): 90; Plant response rating, Corn (corn (Zea mays)): 10; Corn plant response rating (corn (Zea mays)): 70; Foxtail, Giant plant response rating [12]: 100; Plant response rating, Foxtail, Giant [12]: 100; Plant response rating, Wheat [13]: 70; Wheat plant response rating [13]: 80; Pigweed plant response rating [14]: 90; Plant response rating, Pigweed [14]: 100; Ragweed plant response rating [15]: 80; Plant response rating, Ragweed [15]: 90
